Reference: ChEMBL document CHEMBL4665744, “Diverse Types of Diterpenoids with an Aromatized C Ring from the Twigs of Podocarpus imbricatus” (J Nat Prod, 2020)
Activity calls are given as the source filed them. The rule behind the calls is not given here.

How the values were obtained:
Zika virus = test: Antiviral activity against Zika virus; format: functional, organism-based
[1] = Cytotoxicity activity against African green monkey Vero cells assessed as reduction in cell viability by MTT assay; format: cell-based; conditions: chlorocebus sabaeus

Row | SMILES | Activity (Zika virus) | also measured
1 | CC(C)c1cc2c(cc1O)[C@@H](O)[C@@H](O)[C@H]1[C@](C)(CO)CCC[C@]21C | – | IC50 (Zika virus): 2.5 µM
2 | C[C@H](CO)c1cc2c(cc1O)[C@@]1(C)CCC[C@](C)(C(=O)O)[C@@H]1CC2 | inactive | –
3 | CC(C)c1cc2c(cc1O)C[C@@H](O)[C@H]1[C@](C)(CO)CCC[C@]21C | inactive | –
4 | CC(C)c1c(O)ccc2c1CC[C@H]1C(C)(C)CC[C@@H](O)[C@]21C | inactive | –
5 | COc1c(C)c2c(c(O)c1C/C=C(\C)CCC(=O)O)C(=O)OC2 [MYCOPHENOLIC ACID] | – | CC50 [1]: 18.7 µM
